Results: US20100016232A1, “Treatment Of Inflammatory Diseases With Mammal Beta Defensins” (Novozymes A/S, priority 2008, published 2010)
Where no end group is shown, it is not given here.

Tested on: TNF-alfa secretion from PBMC
Assay: TNF-alfa secretion from PBMC, ELISA
Format: cell-based, human
Description: Peripheral blood was drawn from healthy volunteers (with approval from the relevant ethical committee in Denmark). Heparinized blood was diluted 1/1 v/v with RPMI and were subjected to Ficoll density centrifugation within 2 h of drawing. Plasma was collected from the top from individual donors and was kept on ice until it was used at 2% in the culture medium (autologous culture medium). Isolated PBMC were resuspended in autologous culture medium and seeded in 96-well culture plates with 255.000 cells per well in a total of 200 μl. […] The concentrations used for stimulation were optimized on 3 different donors in initial experiments, for LPS two different concentrations were used to be sure to be on a cytokine level that is possible to modulate. In some experiments PBMC were treated with Dexamethason and Indomethacin alone and together with LPS or LTA as a control on downregulation of inflammatory cytokines. The supernatants were collected after incubation at 37° C. for 24 hours, and stored at −80° C. until cytokine measurement. Viability was measured by Alamar Blue (Biosource, DALL 1100) in all experiments and in some cases also by MTS (Promega) according to manufacturer's instruction and was in some experiments also judged by counting of the cells by a Nucleocounter.
Cytokine production in supernatants was measured by flow cytometry with a human inflammation cytometric bead array (CBA) according to manufacturer's instructions (BD) on a FACSarray flow cytometer. The following cytokines were measured: IL-8, IL-1β, IL-10, TNF, IL-12 p70, IL-6. In some experiments, cytokines were measured by ELISA kits from R&D systems (IL-10, TNF-α, IL-1β) according to the manufacturer' instruction.
In Tables 6, 7 and 8, supernatants from another donor were analysed for cytokines by ELISA instead of by a cytometric bead array by flowcytometry and here the same were observed, although the sensitivity of the assay is lower and the detection limit much higher and therefore the effects were not as significant.

Substance: hBD2: human beta defensin 2, SEQ ID NO:2; produced recombinantly in E. coli (Example 1); hBD2 of Tables 16-18 was prepared by chemical synthesis (GIGDPVTCLKSGAICHPVFCPRRYKQIGTCGLPGTKCCKKP; ends and bridges not checked; cysteine pairing not given here; listed as Homo sapiens)
- TNF-α (LPS 0.6 ng/ml, hBD2 1 μg/ml): 0.70 ng/mL
- TNF-α (LPS 0.6 ng/ml, hBD2 10 μg/ml): 0.59 ng/mL
- TNF-α (LPS 0.6 ng/ml, hBD2 100 μg/ml): 0.41 ng/mL
- TNF-α (LPS 20 ng/ml, hBD2 1 μg/ml): 1.18 ng/mL
- TNF-α (LPS 20 ng/ml, hBD2 10 μg/ml): 0.49 ng/mL
- TNF-α (LPS 20 ng/ml, hBD2 100 μg/ml): 0.53 ng/mL
- TNF-α (LTA 1.25 μg/ml, hBD2 1 μg/ml): 0.65 ng/mL
- TNF-α (LTA 1.25 μg/ml, hBD2 10 μg/ml): 0.27 ng/mL
- TNF-α (LTA 1.25 μg/ml, hBD2 100 μg/ml): 0.21 ng/mL
